Source: patent US20250243219A1, “MACROCYCLIC COMPOUNDS AND USES THEREOF” (Cypralis Limited, priority 2022, published 2025)

What was measured:
[1] = target: cyclophilin D (Homo sapiens (Human), UniProt P30405); assay: Functional peptidyl prolyl isomerase (PPIase) spectrophotometric assay, cyclophilin D; assay type: biochemical; conditions: second value of CypA/D cell; read-out: Ki CypD
Text: (§1) Cyclophilins are enzymes that catalyse the cis-trans isomerisation of peptide bonds to the amino acid proline. This event is important in many biological processes, including protein folding and signal transduction. […] The method to measure this activity and its inhibition is similar to that described by Jankowski (Analytical Biochemistry, 252, 2, 299-307 (1997)). The assay measures the cis to trans isomerisation of a peptide substrate catalysed by a PPlase enzyme using a UV/Vis spectrophotometer. This assay is a manual single cuvette-based assay. A first order rate equation is fitted to the absorbance data to obtain a rate constant. The catalytic rate is calculated from the enzymatic rate minus the background rate. The Ki (the concentration required to produce half maximum inhibition) for an inhibitor is obtained from the rate constant plotted against the inhibitor concentration. Typically, a 6-point dose response curve is obtained from duplicates and a Ki determined. Data are given in Table 5 as Ki [nM] for cyclophilins A and D, expressed in column 2 of Table 5 as Ki (cypA)/Ki (cypD).

[2] = test system: permeabilised HepG2 cells; assay: Calcium retention capacity (CRC) assay in permeabilised HepG2 cells (MPTP opening); assay type: cell-based, human; design: CRC [10 μM]: unit not given here; conditions: compound at 10 μM; for CRC [10 μM]: digitonin permeabilised HepG2 cells; for CRC [10 μM] (ratio vs CsA): normalised to cyclosporin A, value in brackets
Experimental: The use of permeabilised cells means that inhibitory compounds that may not normally enter non-permeabilised cells are more likely to be active.
The calcium retention capacity (CRC) is a measure of the capability of mitochondria to retain calcium, primarily in the form of calcium phosphates, in the mitochondrial matrix.
In a CRC assay, the calcium indicator Calcium Green-5N (InVitrogen) is utilized. […] The assay is carried out in HepG2 (human hepatocellular carcinoma) cells which are digitonin permeabilized. Trains of calcium pulses (typically 5 μM additions) are added which results in a sudden increase in fluorescence which is then reduced by mitochondrial buffering. The cells will reach a point at which the calcium addition is no longer buffered, an indication that the MPTP has opened (mitochondrial permeability transition).
The experiment is performed with and without inhibitor. A compound that acts to inhibit the mitochondrial pore opening will result in a greater requirement for calcium to reach the transition point. The results are normalised to a positive control (cyclosporin A) in each experiment. The results are shown in column 3 of Table 5 as CRC [10 μM] (ratio vs CsA). The method of digitonin permeabilised whole cell CRC assay is similar to that used by Chiara et al. (PLoS One, March, 3, 3, e1852 (2008)).

[3] = test system: SH-SY5Y cells; assay: Thapsigargin treated cell death assay in SH-SY5Y cells; assay type: cell-based, human; conditions: compound at 10 μM, positive = protection from cell death, negative = compound toxicity
Text: Thapsigargin raises intracellular free calcium (Ca^2+) by potently inhibiting the endoplasmic reticulum Ca-ATPase, which sequesters Ca^2+ from the cytosol. The increased cytosolic Ca^2+ concentration is buffered by mitochondria by exchanging Ca^2+ for K, leading to depolarisation in the inner mitochondrial membrane and permeability transition.
The thapsigargin treated Jurkat cell death assay is a homogeneous 96 well plate based assay for cell death, instigated by the opening of the mitochondrial permeability transition pore (MPTP). The addition of thapsigargin to Jurkat cells results in an influx of calcium, the increase in intracellular calcium will initially be buffered by the mitochondria, but eventually the increasing calcium concentration will result in the opening of the MPTP, resulting in cell death.
CellTox™ Green is a dye which is unable to enter the cell until cell death leads to the loss of membrane integrity. Once this happens the CellTox™ Green enters the cell, binds to the cell's DNA and emits a fluorescent signal. […] Unless otherwise stated, the assay is typically run using a range of three compound concentrations of 1, 3 and 10 μM in triplicate and is read kinetically over a period of 24 hours. Compounds are added 30 minutes before the addition of thapsigargin. Compound only controls and positive control, cyclosporin A (CsA) (3 and 10 μM) are also included in the assay. Results are typically calculated at the 8 hour time point and the kinetic data is also reported.
The assay is carried out as described for the Jurkat cells but using the SH-SY5Y (human neuroblastoma) cell line instead of Jurkat cells. The results are shown in the fourth column of Table 5 (SY5Y [10 μM]% recovery). Positive numbers indicate protection from cell death, negative numbers indicate compound toxicity.

[4] = target: cyclophilin A (Homo sapiens (Human), UniProt P62937); assay: Functional peptidyl prolyl isomerase (PPIase) spectrophotometric assay, cyclophilin A; assay type: biochemical; conditions: first value of CypA/D cell
cyclophilin A, sequence (P62937 whole entry, species assumed): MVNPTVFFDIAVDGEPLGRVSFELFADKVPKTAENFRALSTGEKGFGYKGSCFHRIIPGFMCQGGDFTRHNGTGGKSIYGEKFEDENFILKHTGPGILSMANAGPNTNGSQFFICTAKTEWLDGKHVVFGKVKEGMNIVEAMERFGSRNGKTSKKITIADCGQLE
Text: as §1

cyclophilin D, sequence (P30405 30-207, species assumed): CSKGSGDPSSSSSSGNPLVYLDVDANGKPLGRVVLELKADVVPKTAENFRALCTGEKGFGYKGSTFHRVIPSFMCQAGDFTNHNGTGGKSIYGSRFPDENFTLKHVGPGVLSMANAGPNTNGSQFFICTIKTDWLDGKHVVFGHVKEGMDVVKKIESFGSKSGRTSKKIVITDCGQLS

SMILES | Ki [1] [nM] | CRC [10 μM] [2] | CRC [10 μM] (ratio vs CsA) [2] | SYSY [10 μM] % recovery [3] [%] | Ki [4] [nM] | CRC [10 μM] (ratio vs CsA) ([2]; listed as 33) | CRC [10 μM] ([2]; listed as 38) | CRC [10 μM] (ratio vs CsA) ([2]; listed as 38) | SYSY [10 μM] % recovery ([3]; listed as 38) [%] | SYSY [10 μM] % recovery ([3]; listed as 31) [%]
CC(C)[C@@H]1OC(=O)C(C)(C)/C=C/c2ccc3ccc(nc3c2)N(C)NC(=O)[C@@H]2CCCN(N2)C(=O)[C@H](CCC(=O)NC2CCN(C)CC2)NC1=O [Compound (71)] | 16 | 18.3 | 0.76 | 4 | 51 |  |  |  |  | 
C[C@@H]1NC(=O)[C@@H](CC2CCCNC2)OC(=O)C(C)(C)/C=C/c2ccc3ccc(nc3c2)N(C)N(C)C(=O)[C@@H]2CCCN(N2)C1=O (single isomer, unassigned) [Compound (33)] | 3800 | 5 |  | 9 | 280 | 0.2 |  |  |  | 
C[C@@H]1NC(=O)C(Cc2ccc(N)nc2)OC(=O)C(C)(C)/C=C/c2ccc3ccc(nc3c2)N(C)NC(=O)[C@@H]2CCCN(N2)C1=O (stereo partly drawn) [Compound (43)] | 40 | 10 | 0.67 | 10 | 44 |  |  |  |  | 
CC(C)[C@@H]1OC(=O)C2(/C=C/c3ccc4ccc(nc4c3)N(C)NC(=O)[C@@H]3CCCN(N3)C(=O)[C@H](C)NC1=O)CCCC2 [Compound (21)] | 6.1 | 32.5 | 0.93 | 33.8 | 2.5 |  |  |  |  | 
C[C@@H]1NC(=O)[C@H](Cc2ccccc2Cl)OC(=O)C(C)(C)/C=C/c2ccc3ccc(nc3c2)N(C)NC(=O)[C@@H]2CCCN(N2)C1=O [Compound (81)] | 9.4 | 20 | 0.67 | 44 | 9.7 |  |  |  |  | 
C[C@@H]1NC(=O)[C@H](CCC(N)=O)OC(=O)C(C)(C)/C=C/c2ccc3ccc(nc3c2)N(C)NC(=O)[C@@H]2CCCN(N2)C1=O [Compound (54)] | 700 | 15 | 0.50 | 10 | 36 |  |  |  |  | 
CC(C)[C@@H]1OC(=O)C(C)(C)/C=C/c2ccc3ccc(nc3c2)N(C)NC(=O)[C@@H]2CCCN(N2)C(=O)[C@H](Cc2ccc(CN(C)C)cc2)NC1=O [Compound (79)] | 28 | 28.33 | 0.85 | 1.8 | 8.9 |  |  |  |  | 
C[C@@H]1NC(=O)[C@H](CC2CCCNC2)OC(=O)C(C)(C)/C=C/c2ccc3ccc(nc3c2)N(C)NC(=O)[C@@H]2CCCN(N2)C1=O (stereo partly drawn) [Compound (56)] | 56.6 | 8 | 0.36 | 15 | 295 |  |  |  |  | 
CC(C)[C@@H]1OC(=O)C(C)(C)/C=C/c2ccc3ccc(nc3c2)N(C)NC(=O)[C@@H]2CCCN(N2)C(=O)[C@H](CC2CCN(C)CC2)NC1=O [Compound (73)] | 42 | 15 | 0.75 | 43 | 11 |  |  |  |  | 
CC(C)[C@@H]1OC(=O)[C@](C)(Cc2ccccc2)/C=C/c2ccc3ccc(nc3c2)N(C)NC(=O)[C@@H]2CCCN(N2)C(=O)[C@H](C)NC1=O [Compound (16)] | 14 | 25 | 0.83 | 62 | 1.7 |  |  |  |  | 
C[C@@H]1NC(=O)[C@H](CCl)OC(=O)C(C)(C)/C=C/c2ccc3ccc(nc3c2)N(C)NC(=O)[C@@H]2CCCN(N2)C1=O [Compound (53)] | 28 | 25 | 0.83 | 21 | 15 |  |  |  |  | 
CC(C)[C@@H]1OC(=O)C(C)(C)/C=C/c2ccc3ccc(nc3c2)N(C)NC(=O)[C@@H]2CCCN(N2)C(=O)[C@H](CCC(=O)N2CCN(C)CC2)NC1=O [Compound (70)] | 53 | 25 | 1.00 | 44 | 6.7 |  |  |  |  | 
CC(C)[C@@H]1OC(=O)C(C)(C)/C=C/c2ccc3ccc(nc3c2)N(C)NC(=O)[C@@H]2CCCN(N2)C(=O)[C@H](CCC(=O)N2CCC(O)CC2)NC1=O [Compound (72)] | 21 | 20 | 0.80 | 43 | 14 |  |  |  |  | 
CC(C)C(=O)Nc1cccc(C[C@@H]2OC(=O)C(C)(C)/C=C/c3ccc4ccc(nc4c3)N(C)NC(=O)[C@@H]3CCCN(N3)C(=O)[C@H](C)NC2=O)c1 [Compound (49)] | 14 | 20 | 1.00 | 40 | 22 |  |  |  |  | 
CC(C)[C@@H]1OC(=O)C(C)(C)/C=C/c2ccc3ccc(nc3c2)N(C)NC(=O)[C@@H]2CCCN(N2)C(=O)[C@H](CCC(=O)N2CCNCC2)NC1=O [Compound (69)] | 41 | 20 | 0.80 | 17 | 34 |  |  |  |  | 
C[C@@H]1NC(=O)[C@H](C[C@@H]2CCCN(C)C2)OC(=O)C(C)(C)/C=C/c2ccc3ccc(nc3c2)N(C)NC(=O)[C@@H]2CCCN(N2)C1=O [Compound (36)] | 1400 | 7.5 | 0.42 | 19 | 390 |  |  |  |  | 
CC(C)[C@@H]1OC(=O)C(C)(C)/C=C/c2ccc3ccc(nc3c2)N(C)NC(=O)[C@@H]2CCCN(N2)C(=O)[C@H](Cc2ccccc2)NC1=O [Compound (76)] | 6.3 | 33.9 | 0.97 | 27.6 | 5.6 |  |  |  |  | 
CNC(=O)c1ccc(CC2OC(=O)C(C)(C)/C=C/c3ccc4ccc(nc4c3)N(C)NC(=O)[C@@H]3CCCN(N3)C(=O)[C@H](C)NC2=O)cc1 (single isomer, unassigned) [Compound (38)] | 190 |  |  |  | 160 |  | 7.5 | 0.33 | 8 | 
COC[C@]1(C)/C=C/c2ccc3ccc(nc3c2)N(C)NC(=O)[C@@H]2CCCN(N2)C(=O)[C@H](C)NC(=O)[C@H](C(C)C)OC1=O [Compound (14)] | 25 | 40 | 1.09 | 9.3 | 17 |  |  |  |  | 
C[C@@H]1NC(=O)[C@@H](CC2CCCNC2)OC(=O)C(C)(C)/C=C/c2ccc3ccc(nc3c2)N(C)NC(=O)[C@@H]2CCCN(N2)C1=O (single isomer, unassigned) [Compound (31)] | 180 | 10 | 0.33 |  | 790 |  |  |  |  | 12
CC(C)[C@@H]1OC(=O)C(C)(C)/C=C/c2ccc3ccc(nc3c2)N(C)NC(=O)[C@@H]2CCCN(N2)C(=O)[C@H](CCC(=O)N(C)c2ccccc2)NC1=O [Compound (64)] | 59 | 25 | 1.00 | 44 | 5.1 |  |  |  |  | 
